Reference: publication PMC9750872, “Ras-mutant cancers are sensitive to small molecule inhibition of V-type ATPases in mice” (Nature biotechnology, 2022)

Key:
[1] = test system: MelJuso (HRASG13D and NRASQ61L); test: Cell viability screen, CellTiter-Glo, 72 h; assay type: cell-based, human; details: ATP content/viability
Method: Figure 1: Optimization of Potency and Drug Properties of Small Molecule Inhibitors of Ras- and Raf-mutant Cells using Viability Screens. (A) Cell viability screen of ~300 small molecules in A549 (KRASG12S), LOX IMVI (BRAFV600E), and MelJuso (HRASG13D and NRASQ61L). Cells were treated with vehicle DMSO or increasing concentrations of small molecules in triplicate for 72 h and ATP content/viability was measured using CellTiter-Glo Luminescent Cell Viability Assay. The results shown for all cell viability figures are representative of at least two independent experiments. […] (C) Evolution of the Structure Activity Relationship (SAR) and IC50s of the first (68) and last (249C | lead due to drug-like properties) compounds in the screen. (D) 249C sensitivity for a panel of 53 cancer cell lines (including lung, pancreatic, breast, ovarian, hematological/liver, prostate, colorectal cancers, glioma and melanoma). […] (F) Quantitative whole proteome analysis of the effects of small molecule treatment by mass spectrometry. A549 cells were treated with DMSO or 68 (30 μM), 226C (1μM) or 249C (1μM) for 48 h prior to analysis of proteomes with TMT labeling followed by quantification relative to the DMSO control. […]

[2] = test system: SW48 KRASG12D/+ xenografts; test: SW48 isogenic colon xenograft; assay type: in vivo, mouse; details: 10 mg/kg i.p., 14 days of treatment
Description: (§1) To explore the relationship between individual KRAS mutants and 249C sensitivity in vivo, we used a colon cancer (SW48) xenograft model with a set of colon cancer cell lines which differ in KRAS mutation status but are otherwise genetically matched. Stable derivatives of the SW48 cell line were derived by introducing a KRASG12D, KRASG12V or KRASG13D point mutation via rrAV gene editing technology previously reported. To compare KRAS mutants in a cancer-relevant system, four cell lines: (SW48, SW48 KRASG12D/+, SW48 KRASG12V/+ and SW48 KRASG13D/+) were injected into athymic mice and 14 days of treatment (10 mg/kg 249C or vehicle control, i.p., n = 5 for all arms) was started when the average tumor volume reached approximately 100–200 mm^3 following random segregation into groups. As before, KRASG13D tumors were most sensitive to 249C both in vitro and in vivo (Fig. 6d–e). […] Changes in tumor volume are presented for animals bearing isogenic SW48 cells: parental/KRASWT (Fig. 6f), KRASG12D/+ (Fig. 6g), KRASG12V/+, (Fig. 6h), KRASG13D/+ (Fig. 6i). Note that SW48 tumors with different KRAS variants show different basal growth rates, as reported previously. […] Further, no significant changes in body weight of the mice were observed during the study (Fig. 6j).
(§2) For cell line xenografts, 6 × 10^6 SW48 cells were subcutaneously injected into the flanks of 6–8-week old athymic nude female mice (Taconic model # NCRNU-F, CrTac:NCR-Foxn1 sp/sp) and tumor growth was monitored with caliper measurement. Once the mean tumor reached a certain volume (between 100–200 mm^3), animals were randomized into different treatment groups of 5 animals per group. 249C for in vivo use was formulated in 0.5% Methylcellulose and dosed i.p. (10 mg/kg, for 2 weeks). Antitumor activity was determined by calculating the treatment over control (T/C) tumor volume ratio at the end of the study. Either at the end of each study, of if any animal reached a humane endpoint, animals were euthanized with CO2 followed by cervical dislocation or another secondary method of euthanasia approved by the IACUC protocol. Mouse manipulations were performed in accordance with UCSF’s IACUC protocol AN179973.Mice were housed in the UCSF Animal Care Facility LARC at the Helen Diller Family Cancer Center at UCSF Mission Bay. Mice were housed in a specific-pathogen free individual suite. They are housed up to 5 per cage in ventilator cages, with ad libitum food and water on a 12-hour light cycle and controlled temperature and humidity conditions (67–74°F and 30–70%).

[3] = test system: SW48 KRASG12V/+ xenografts; test: SW48 isogenic colon xenograft; assay type: in vivo, mouse; details: 10 mg/kg i.p., 14 days of treatment
Description: as §1, §2

[4] = test system: SW48 KRASG13D/+ xenografts; test: SW48 isogenic colon xenograft; assay type: in vivo, mouse; details: 10 mg/kg i.p., 14 days of treatment
Description: as §1, §2

[5] = test system: SW48 parental (KRAS WT) xenografts; test: SW48 isogenic colon xenograft; assay type: in vivo, mouse; details: 10 mg/kg i.p., 14 days of treatment
Description: as §1, §2

[6] = target: hERG (Homo sapiens, UniProt Q12809); test: hERG fluorescence polarization assay; details: human
[7] = test system: MEFs KRAS G12V; test: Cell proliferation of Ras-less MEFs expressing human KRAS/BRAF; details: Mus musculus
Method: Cell proliferation assays of stable cell lines treated with V-ATPase inhibitors 249C and BafA1, HCQ analog (DC661), KRASG12C inhibitor (AMG510) and autophagy inducer (CMA). For each bar, n = 3. Representative of 3 biological replicates (mean ± SD). Two-sided t-test with no adjustments for multiple comparisons.
(§3) Logarithmically growing cells were plated in antibiotic-free medium supplemented with 2% fetal bovine serum at a density of 5,000 cells per well. The next day, cells were treated in triplicates with increasing doses of in-house small molecule inhibitor drugs and a DMSO vehicle control for 3 days and subsequently assessed for cell viability by measurement of ATP with CellTiter-Glo Luminescent Cell Viability Assay (Promega). Signal intensity was read on a Glomax™ 96 Microplate Luminometer (Promega) with GLOMAX software (version 1.9.3) and percent cell survival was calculated based on the reading of vehicle control cells set as 100% using Excel (2012) and GraphPad Prism (version 6)Each compound was tested a minimum of 2 times with n = 3. All cell proliferation assays (cancer cell lines or MEFs) were done in a similar way.

[8] = test system: MEFs KRAS G12D; test: as above; details: Mus musculus
Method: as §3

[9] = test system: MEFs KRAS Q61L; test: as above; details: Mus musculus
Method: as §3

hERG, sequence (Q12809 whole entry): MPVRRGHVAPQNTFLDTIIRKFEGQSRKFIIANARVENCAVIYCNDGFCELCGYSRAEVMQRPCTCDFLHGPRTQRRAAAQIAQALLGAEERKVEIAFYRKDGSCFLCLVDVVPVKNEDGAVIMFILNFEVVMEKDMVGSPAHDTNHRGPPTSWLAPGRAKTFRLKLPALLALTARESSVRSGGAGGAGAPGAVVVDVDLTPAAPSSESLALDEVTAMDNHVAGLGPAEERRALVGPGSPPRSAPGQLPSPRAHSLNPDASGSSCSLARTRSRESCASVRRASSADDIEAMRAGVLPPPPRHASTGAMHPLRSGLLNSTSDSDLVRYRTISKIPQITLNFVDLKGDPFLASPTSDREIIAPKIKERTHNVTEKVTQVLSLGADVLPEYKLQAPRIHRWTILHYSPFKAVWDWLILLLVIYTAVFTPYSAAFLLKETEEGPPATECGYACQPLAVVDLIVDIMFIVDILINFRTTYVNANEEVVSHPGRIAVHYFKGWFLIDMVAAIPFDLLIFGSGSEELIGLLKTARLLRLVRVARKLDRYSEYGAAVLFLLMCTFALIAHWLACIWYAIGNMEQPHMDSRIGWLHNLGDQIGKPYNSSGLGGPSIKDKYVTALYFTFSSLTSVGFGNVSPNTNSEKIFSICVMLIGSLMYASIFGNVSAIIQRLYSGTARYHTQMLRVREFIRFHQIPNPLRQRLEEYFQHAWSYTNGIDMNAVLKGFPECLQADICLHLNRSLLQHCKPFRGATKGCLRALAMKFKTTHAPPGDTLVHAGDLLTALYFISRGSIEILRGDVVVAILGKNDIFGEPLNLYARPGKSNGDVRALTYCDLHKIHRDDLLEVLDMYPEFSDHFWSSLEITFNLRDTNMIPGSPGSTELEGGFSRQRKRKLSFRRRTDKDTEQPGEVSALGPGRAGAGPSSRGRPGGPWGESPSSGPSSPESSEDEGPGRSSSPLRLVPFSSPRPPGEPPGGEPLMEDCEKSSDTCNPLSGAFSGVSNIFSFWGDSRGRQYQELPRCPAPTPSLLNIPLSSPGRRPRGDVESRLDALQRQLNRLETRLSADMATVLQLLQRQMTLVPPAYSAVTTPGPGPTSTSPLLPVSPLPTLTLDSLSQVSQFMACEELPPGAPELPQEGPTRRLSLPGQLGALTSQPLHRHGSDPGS

Question: Which IC50 ([1]; listed as 002-249C) does the source give for `CN1CCOC(CNC(=O)C2(C)C(c3ccc(Cl)o3)C(c3ccc(F)cc3F)=NN2c2ccc(F)cc2F)C1` (stereo not shown) [Compound 249C] here?
Answer: 21.9 nM

Question: And the IC50 ([1]; Homo sapiens, MEL-JUSO)?
Answer: 22 nM

Question: What about the “Treatment/Control on Day 21” value [2] of the same compound?
Answer: 75%

Question: What about the “Tumor Growth Inhibition (TGI) on Day 21” value [2] of the same compound?
Answer: 25%

Question: What about the “Treatment/Control on Day 21” value [3] of the same compound?
Answer: 55%

Question: And the “Tumor Growth Inhibition (TGI) on Day 21” value [3]?
Answer: 45%

Question: What about the “Treatment/Control on Day 21” value [4] of the same compound?
Answer: 18%

Question: And the “Tumor Growth Inhibition (TGI) on Day 21” value [4]?
Answer: 82%

Question: What about the “Tumor Growth Inhibition (TGI) on Day 21” value [5] of the same compound?
Answer: 0%

Question: And the inhibition at 30 µM [6]?
Answer: 0%

Question: And the IC50 [7]?
Answer: 150 nM

Question: And the IC50 [8]?
Answer: 300 nM

Question: What about the IC50 [9] of the same compound?
Answer: 310 nM
